Laboratory results as given in paper PMC4697807, “Novel Zn^2+ Modulated GPR39 Receptor Agonists Do Not Drive Acute Insulin Secretion in Rodents” (PLoS ONE, 2015).

Columns and labels:
DIO mice = assay: IPGTT in DIO mice; format: in vivo, mouse; conditions: 100 mg/kg group, IP; group terminated
Text: (§1) Six-week-old male C57BL/6J mice were purchased from CLEA (Tokyo, Japan). Fourteen-week-old and fifteen-week-old male DIO mice were purchase from Charles River Japan (Yokohama, Japan). They were used after at least one week acclimation period. C57BL/6J mice were allowed free access to a normal diet (CRF-1, Oriental Yeast, Tokyo, Japan). DIO mice were allowed free access to a high-fat diet with 60 kcal% fat (D12492, Research Diets, New Brunswick, NJ). They were kept under standard 12-h light/dark cycle. Animal experiments were approved by the Institutional Animal Care and Use Committee of Mitsubishi Tanabe Pharma Corporation.
Fifteen-week-old and twenty one-week-old DIO mice were used. The mice were fasted for 3 h and were randomly grouped based on the body weight. Five ml/kg of a solution of vehicle (10% DMF/18% Cremophore) or compounds were administered IP. Thirty min later, 1.0 g/10 ml/kg of glucose solution was administered IP. Blood samples were obtained from the tail vein at -30, 0, 15, 30, 60, and 120 min after glucose challenge. Plasma glucose and insulin were measured.
Statistical analysis was performed using SAS9.1.3 with student’s t-test or Dunnett’s test. All data were expressed as mean ± standard error of mean (SEM). P values of <0.05 were considered to be statistically significant.

[1] = Unbound plasma exposure in the IPGTT; format: in vivo, mouse; conditions: 0-30 min after glucose challenge; IP; lean mice
Protocol: Plasma protein binding of test compound was examined by an equilibrium dialysis method. The compound was mixed with blank mouse plasma to a concentration of 10 μM. The plasma sample and PBS were added to a sample chamber and a buffer chamber of an equilibrium dialysis device, respectively. The device was incubated for 4 h at 37°C in a CO2 incubator (oscillation: 180 rpm). After incubation, an aliquot in each chamber was collected. They were mixed with acetonitrile/methanol (50/50, v/v) and were centrifuged. The supernatants were analyzed by LC-MS/MS. Plasma unbound fraction (f) was calculated by Eq 2, f=Cf/Ct (2) where Cf and Ct represent the compound concentration in the buffer and sample chamber, respectively. […]
The unbound plasma concentrations were calculated by correcting the total plasma concentration derived from the LC/MS analysis by the free fraction, f u. The exposure in terms of the area under the unbound concentration-time curve in the interval 30–60 min after drug administration AUCu 30–60min, i.e. the interval 0–30 min after glucose challenge, was calculated using the linear up-log down trapezoidal method in the non compartmental module of Phoenix 6.2 (Pharsight). […] The ratio between C u,av and the EC 50 of the different in vitro potency assays was calculated for each compound and dose administered.

INS-1E cells = assay: Glucose stimulated insulin secretion (GSIS) in INS-1E cells; format: cell-based, rat; conditions: for effect on GSIS: 1, 3 and 10 μM compound, 11.1 mM glucose; for unbound concentration yielding significant increases in GSIS (highest unbound concentration): free fraction calculated for 0.1% BSA
Protocol: INS-1E cells obtained from Dr. Wollheim (Univ. Geneva, Switzerland), were grown in Roswell Park Memorial Institute medium (RPMI) 1640 (Life technologies) supplemented with 5% of fetal bovine serum (Thermo Fischer Scientific, Inc. Waltham, MA). At 4 or 5 days before the assay, cells were plated in 24-well plates at 2 × 10^5 cells /well. At the day of the assay, cells were washed twice by Krebs-Ringer bicarbonate (KRB) buffer containing 0.1% BSA (pH7.4) and pre-incubated at 37°C for 30 min. The cells were washed twice again, and the buffer was replaced by KRB buffer containing 0, 1, 3 and 10 μM of compounds and 11.1 mM of glucose. In order to examine whether Zn^2+ has an enhancing effect on the activity of each compound, 20 μM of Zn^2+ was added in the incubation buffer as necessary. After cells were stimulated at 37°C for 1 h, the reaction was terminated by placing on ice. The buffer was collected from each well and precipitated (1000 rpm for 2 min at 25°C) in order to be separated from the cells. For each sample, concentration of insulin was measured using HTRF insulin kit (Cisbio).
The free fraction in the INS-1E assay, containing 0.1% w/w BSA, was calculated by using the equilibrium conditions of a single binding site model as in Eq 3.
The free fraction in mouse plasma corresponds to 1—CP/Ptot.

C57BL/6J mice = assay: Intraperitoneal glucose tolerance test (IPGTT) in C57BL/6J mice; format: in vivo, mouse; conditions: 30 and 100 mg/kg IP, 30 min before 1.5 g/kg glucose IP; fasted lean mice
Text: as §1
Seven-week-old and eight-week-old C57BL/6J mice were used. Mice were fasted overnight and were randomly grouped. Five ml/kg of a solution of vehicle (10% dimethylformamide (DMF)/18% Cremophore) or compounds were intraperitoneally (IP) administered. Thirty min later, 1.5 g/20 ml/kg of glucose solution was IP administered. […] Plasma glucose was measured using Glucose CII Test Wako Kit (Wako Pure Chemical Industries, Osaka, Japan). Plasma insulin was measured using Ultra Sensitive Mouse Insulin ELISA Kit (Morinaga, Yokohama, Japan).
Statistical analysis was performed using SAS9.1.3 with student’s t-test or Dunnett’s test. All data were expressed as mean ± standard error of mean (SEM). […]

Row | Structure (SMILES) | adverse findings (DIO mice) | average in vivo exposure (C u,av), unbound [1] | effect on GSIS (INS-1E cells; absence of Zn^2+) | effect on GSIS (INS-1E cells; presence of 20 μM Zn^2+) | unbound concentration yielding significant increases in GSIS (highest unbound concentration) (INS-1E cells) | insulinotropic effect (C57BL/6J mice)
1 | N#Cc1ccc(OCCn2ccnc2)c(OCCn2ccnc2)c1 [AZ1395, 3,4-bis-(2-imidazol-1-ylethoxy)-benzonitrile] | severe hyperglycemia and associated morbidity/mortality in some animals | – | – | – | – | –
2 | Cc1nc2c(C(=O)O)cnn2c(O)c1Cc1ccc(Cl)cc1 [AZ4237, 6-[(4-chlorophenyl)methyl]-7-hydroxy-5-methyl-pyrazolo[1,5-a]pyrimidine-3-carboxylic acid] | – | 19 µM | no effects | dose dependent GSIS increases | 7.2 µM | did not elicit insulinotropic effects in vivo
3 | Cc1nc(-c2nc3c(c(=O)[nH]2)CN(C(=O)c2cccc(Cl)c2F)CC3)cs1 [AZ7914, 6-(3-chloro-2-fluoro-benzoyl)-2-(2-methylthiazol-4-yl)-3,5,7,8-tetrahydropyrido-[4,3-d]pyrimidin-4-one] | – | 29 µM | no effects | dose dependent GSIS increases | 8.4 µM | did not elicit insulinotropic effects in vivo
